# Assay results: patent US7875599B2, “C-17-heteroaryl steroidal CYP17 inhibitors/antiandrogens, in vitro biological activities, pharmacokinetics and antitumor activity” (University of Maryland, priority 2005, dated 2011)
# Biological target: T1, CYP17 (Homo sapiens, UniProt P05093)
# T1 sequence (P05093 1-508): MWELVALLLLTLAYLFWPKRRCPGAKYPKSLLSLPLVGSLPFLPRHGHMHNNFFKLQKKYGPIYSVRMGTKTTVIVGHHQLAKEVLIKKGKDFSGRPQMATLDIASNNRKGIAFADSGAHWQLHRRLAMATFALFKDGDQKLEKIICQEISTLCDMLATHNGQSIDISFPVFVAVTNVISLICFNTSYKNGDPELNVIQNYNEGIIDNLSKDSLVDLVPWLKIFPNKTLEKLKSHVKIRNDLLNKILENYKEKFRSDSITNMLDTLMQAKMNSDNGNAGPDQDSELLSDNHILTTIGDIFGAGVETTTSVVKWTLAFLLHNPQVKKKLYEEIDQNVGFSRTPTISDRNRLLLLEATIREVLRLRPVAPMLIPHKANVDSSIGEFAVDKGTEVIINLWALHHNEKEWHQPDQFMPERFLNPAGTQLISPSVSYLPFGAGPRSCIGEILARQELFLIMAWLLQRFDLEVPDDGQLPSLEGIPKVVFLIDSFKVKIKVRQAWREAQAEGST
# Assay: UV-vis difference spectroscopy, binding to heme iron of CYP17
smiles,measurement,value
"C[C@]12CC[C@H](O)CC1=CC[C@@H]1[C@@H]2CC[C@]2(C)C(n3cnc4ccccc43)=CC[C@@H]12 [Compound 5, 3β-Hydroxy-17-(1H-benzimidazol-1-yl)androsta-5,16-diene]",type of difference spectrum induced,type II difference spectrum
